Reference: patent publication US9096556B2, “Amorphous ritonavir co-precipitated” (HETERO RESEARCH FOUNDATION, priority 2011, dated 2015)

Test: Solid-state stability of the amorphous form
Assay type: physicochemical

CC(C)c1nc(CN(C)C(=O)N[C@H](C(=O)N[C@@H](Cc2ccccc2)C[C@H](O)[C@H](Cc2ccccc2)NC(=O)OCc2cncs2)C(C)C)cs1 [(5S,8S,10S,11S)-10-Hydroxy-2-methyl-5-(1-methylethyl)-1-[2-(1-methylethyl)-4-thiazolyl]-3,6-dioxo-8,11-bis(phenylmethyl)-2,4,7,12-tetraazatridecan-13-oic acid 5-thiazolylmethyl ester]
stability of the amorphous form: unstable | time until the amorphous material changed into molten state: ≤ 30 min
